Laboratory results from patent publication EP4796538A1, “NOVEL QUINOXALINE COMPOUNDS, MANUFACTURING METHOD THEREOF, AND USES THEREOF” (Gachon University of Industry-Academic Cooperation …, priority 2023, dated 2025).

Legend:
Test in all cases: Kinase panel inhibition, radiolabeled [γ-33P] ATP (Reaction Biology Corp)
Format in all cases: biochemical
[1] = target: T1, RET (Homo sapiens, UniProt P07949); conditions: for remaining activity at 1 µM: compound at 1 uM, ATP 10 µM, read-out: % Enzyme Activity (relative to DMSO controls) RET; for IC50: read-out: Enzymatic inhibitory activity (IC50) nM RET
T1 construct: purchased Reaction Biology Corp
Experimental: (§1) Using radiolabeled ATP ([γ-33P] ATP), the degree to which the substrate was replaced by a 33P-phosphorylated substrate was measured, and changes in kinase activity were determined from the measurement of the radiolabeled phosphorylated substrate.

[2] = target: T2, RET(G810R) (Homo sapiens, UniProt P07949, G810R); conditions: for remaining activity at 1 µM: compound at 1 uM, ATP 10 µM, read-out: % Enzyme Activity (relative to DMSO controls) G810R; for IC50: read-out: Enzymatic inhibitory activity (IC50) nM G810R
T2 construct: purchased Reaction Biology Corp
Experimental: as §1

[3] = target: T3, RET(V804M) (Homo sapiens, UniProt P07949, V804M); conditions: for remaining activity at 1 µM: compound at 1 uM, ATP 10 µM, read-out: % Enzyme Activity (relative to DMSO controls) V804M; for IC50: read-out: Enzymatic inhibitory activity (IC50) nM V804M
T3 construct: purchased Reaction Biology Corp
Experimental: as §1

[4] = target: T4, RET(V804M)-KIF5B (Homo sapiens, UniProt P07949, V804M)
T4 sequence (P07949 713-1114 V804M): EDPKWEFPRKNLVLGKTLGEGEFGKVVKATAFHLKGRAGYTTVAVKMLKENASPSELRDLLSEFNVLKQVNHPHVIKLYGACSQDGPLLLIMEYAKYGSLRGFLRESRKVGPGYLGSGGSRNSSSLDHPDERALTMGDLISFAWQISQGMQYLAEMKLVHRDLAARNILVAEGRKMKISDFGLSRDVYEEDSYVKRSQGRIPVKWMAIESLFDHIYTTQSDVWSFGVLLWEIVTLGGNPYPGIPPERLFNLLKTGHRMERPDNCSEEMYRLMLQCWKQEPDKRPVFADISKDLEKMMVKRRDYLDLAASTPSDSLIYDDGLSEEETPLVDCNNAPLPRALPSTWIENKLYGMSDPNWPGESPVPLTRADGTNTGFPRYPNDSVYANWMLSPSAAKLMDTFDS
T4 sequence (P33176 2-575 partner): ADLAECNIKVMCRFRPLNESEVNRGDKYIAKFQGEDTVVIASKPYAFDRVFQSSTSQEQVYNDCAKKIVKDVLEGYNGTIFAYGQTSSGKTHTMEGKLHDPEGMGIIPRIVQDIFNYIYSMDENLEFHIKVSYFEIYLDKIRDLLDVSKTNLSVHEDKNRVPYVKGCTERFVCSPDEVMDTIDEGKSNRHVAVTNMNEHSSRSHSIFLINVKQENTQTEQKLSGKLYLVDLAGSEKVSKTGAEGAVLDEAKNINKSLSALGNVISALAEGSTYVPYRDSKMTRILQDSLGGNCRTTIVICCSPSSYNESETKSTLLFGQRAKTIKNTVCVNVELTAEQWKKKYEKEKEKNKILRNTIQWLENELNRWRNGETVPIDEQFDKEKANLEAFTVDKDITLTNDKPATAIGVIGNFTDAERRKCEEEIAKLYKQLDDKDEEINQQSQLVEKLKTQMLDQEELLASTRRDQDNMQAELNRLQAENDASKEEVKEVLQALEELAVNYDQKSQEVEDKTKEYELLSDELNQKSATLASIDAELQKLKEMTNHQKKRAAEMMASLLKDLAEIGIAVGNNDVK
Experimental: as §1

T1 sequence (P07949 29-1114): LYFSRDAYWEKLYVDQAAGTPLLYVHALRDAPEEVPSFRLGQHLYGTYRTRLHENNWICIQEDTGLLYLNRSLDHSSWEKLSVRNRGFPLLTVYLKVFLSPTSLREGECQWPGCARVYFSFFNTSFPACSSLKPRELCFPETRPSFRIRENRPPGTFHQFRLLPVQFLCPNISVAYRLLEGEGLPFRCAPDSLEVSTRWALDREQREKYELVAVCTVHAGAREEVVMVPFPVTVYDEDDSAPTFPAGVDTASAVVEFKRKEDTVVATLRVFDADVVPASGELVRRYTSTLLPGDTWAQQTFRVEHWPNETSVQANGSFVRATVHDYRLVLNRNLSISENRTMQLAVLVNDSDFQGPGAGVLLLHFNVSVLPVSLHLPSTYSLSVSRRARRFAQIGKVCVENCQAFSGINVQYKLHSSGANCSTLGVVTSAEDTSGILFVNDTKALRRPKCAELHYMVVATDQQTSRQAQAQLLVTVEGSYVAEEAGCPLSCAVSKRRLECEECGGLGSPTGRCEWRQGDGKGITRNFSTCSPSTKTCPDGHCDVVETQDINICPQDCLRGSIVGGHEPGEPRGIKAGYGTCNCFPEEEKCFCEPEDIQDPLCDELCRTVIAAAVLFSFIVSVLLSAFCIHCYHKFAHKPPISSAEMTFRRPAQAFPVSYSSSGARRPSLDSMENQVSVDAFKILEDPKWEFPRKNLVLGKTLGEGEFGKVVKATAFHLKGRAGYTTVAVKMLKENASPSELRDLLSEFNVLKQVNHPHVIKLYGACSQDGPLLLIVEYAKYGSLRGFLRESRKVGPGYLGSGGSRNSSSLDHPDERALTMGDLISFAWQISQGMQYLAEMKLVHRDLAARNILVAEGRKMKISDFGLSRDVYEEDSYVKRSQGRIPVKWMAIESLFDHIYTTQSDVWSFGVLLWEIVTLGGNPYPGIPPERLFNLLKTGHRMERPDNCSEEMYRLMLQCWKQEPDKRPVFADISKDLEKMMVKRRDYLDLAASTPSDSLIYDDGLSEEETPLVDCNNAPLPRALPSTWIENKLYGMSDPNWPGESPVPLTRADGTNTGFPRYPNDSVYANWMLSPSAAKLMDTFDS
T2 sequence (P07949 29-1114 G810R): as the sequence (P07949 29-1114) above, with G782R counted along it
T3 sequence (P07949 29-1114 V804M): as the sequence (P07949 29-1114) above, with V776M counted along it

SMILES	remaining activity at 1 µM [1]	IC50 [1]	remaining activity at 1 µM [2]	IC50 [2]	remaining activity at 1 µM [3]	IC50 [3]	IC50 [4]
Nc1cc(-c2ccc(N3CC(Oc4cccc(F)c4)C3)nc2)c2nccnc2c1 [Example 1, 8-(6-(3-(3-fluorophenoxy)azetidin-1-yl)pyridin-3-yl)quinoxalin-6-amine]	0.51%	3.9 nM	24.5%	275 nM	1.72%	4.2 nM	6.71 nM
CCNc1cc(-c2ccc(N3CC(Oc4cccc(F)c4)C3)nc2)c2nccnc2c1 [Example 3, N-ethyl-8-(6-(3-(3-fluorophenoxy)azetidin-1-yl)pyridin-3-yl)quinoxalin-6-amine]	0.14%	0.57 nM	11.4%	142 nM	0.63%	0.78 nM	1.36 nM
